Source: patent US12065444B2, “Substituted tetrazolo[1,5-a]pyrazines and tetrazolo[1,5-c]pyrimidines as adenosine receptor antagonists” (Crossignal Therapeutics, Inc., priority 2021, dated 2024)

Target: human adenosine A2a receptor (Homo sapiens, UniProt P29274)
Test: Adenosine A2a receptor whole cell cyclic AMP assay
Details: for IC50: HEK293 cells stably expressing human A2a, 1 hour compound treatment; for inhibition at 10 µM: HEK293, 1 h, read-out: A2a @ 100 μM Adenosine (A2a cAMP IC50)
[1] = A2a @ 1 μM Adenosine (A2a cAMP IC50), 1 μM adenosine
[2] = A2a @ 100 μM Adenosine (A2a cAMP IC50), 100 μM adenosine

Chain of human adenosine A2a receptor (P29274 whole entry): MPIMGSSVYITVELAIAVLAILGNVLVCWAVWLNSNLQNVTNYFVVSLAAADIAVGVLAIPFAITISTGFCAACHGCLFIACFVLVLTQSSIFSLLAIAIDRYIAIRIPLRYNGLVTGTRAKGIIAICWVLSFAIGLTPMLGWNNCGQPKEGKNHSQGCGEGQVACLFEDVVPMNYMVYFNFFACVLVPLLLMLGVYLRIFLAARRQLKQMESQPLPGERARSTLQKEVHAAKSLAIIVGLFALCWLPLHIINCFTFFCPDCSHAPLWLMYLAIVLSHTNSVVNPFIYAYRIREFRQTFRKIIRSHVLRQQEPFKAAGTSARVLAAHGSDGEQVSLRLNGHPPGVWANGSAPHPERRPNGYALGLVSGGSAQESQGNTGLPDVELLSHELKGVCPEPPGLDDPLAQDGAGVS

IC50 [1] [nM] | inhibition at 10 µM [%] | IC50 [2] [nM] | SMILES
100 to 1000 |  |  | Cc1cc(-c2c(-c3ccc(F)cc3)nc(N)c3nnnn23)cc(Cl)n1 [1-1, 5-(2-chloro-6-methylpyridin-4-yl)-6-(4-fluorophenyl)tetrazolo[1,5-a]pyrazin-8-amine]
> 1000 |  |  | Cc1cc(-c2nc(N)c3nnnn3c2-c2ccc(F)cc2)cc(Cl)n1 [1-2, 6-(2-chloro-6-methylpyridin-4-yl)-5-(4-fluorophenyl)tetrazolo[1,5-a]pyrazin-8-amine]
> 1000 |  |  | Cc1cc(Cl)cc(-c2c(-c3ccc(F)cc3)nc(N)c3nnnn23)c1 [1-3, 5-(3-chloro-5-methylphenyl)-6-(4-fluorophenyl)tetrazolo[1,5-a]pyrazin-8-amine]
> 1000 |  |  | Cn1cc(-c2c(-c3ccc(F)cc3)nc(N)c3nnnn23)ccc1=O [1-4, 5-(8-amino-6-(4-fluorophenyl)tetrazolo[1,5-a]pyrazin-5-yl)-1-methylpyridin-2(1H)-one]
100 to 1000 |  |  | COc1cc(-c2c(-c3ccc(F)cc3)nc(N)c3nnnn23)cc2cccnc12 [1-5, 6-(4-fluorophenyl)-5-(8-methoxyquinolin-6-yl)tetrazolo[1,5-a]pyrazin-8-amine]
> 1000 |  |  | Nc1nc(-c2ccc(F)cc2)c(-c2ccc3ncnn3c2)n2nnnc12 [1-8, 5-([1,2,4]triazolo[1,5-a]pyridin-6-yl)-6-(4-fluorophenyl)tetrazolo[1,5-a]pyrazin-8-amine]
100 to 1000 | < 25 |  | Nc1nc(-c2ccc(F)cc2)c(-c2ccc3nccn3c2)n2nnnc12 [1-9, 6-(4-fluorophenyl)-5-(imidazo[1,2-a]pyridin-6-yl)tetrazolo[1,5-a]pyrazin-8-amine]
100 to 1000 |  |  | Nc1nc(-c2ccc(F)cc2)c(-c2ccc3ncoc3c2)n2nnnc12 [1-10, 5-(benzo[d]oxazol-6-yl)-6-(4-fluorophenyl)tetrazolo[1,5-a]pyrazin-8-amine]
< 100 | < 25 |  | Nc1nc(-c2ccc(F)cc2)c(-c2ccc3ncccc3c2)n2nnnc12 [1-11, 6-(4-fluorophenyl)-5-(quinolin-6-yl)tetrazolo[1,5-a]pyrazin-8-amine]
100 to 1000 | < 25 |  | Nc1nc(-c2ccc(F)cc2)c(-c2ccc3ncsc3c2)n2nnnc12 [1-12, 5-(benzo[d]thiazol-6-yl)-6-(4-fluorophenyl)tetrazolo[1,5-a]pyrazin-8-amine]
100 to 1000 | < 25 |  | Nc1nc(-c2ccc(F)cc2)c(-c2cc(F)c3nccn3c2)n2nnnc12 [1-14, 5-(8-fluoroimidazo[1,2-a]pyridin-6-yl)-6-(4-fluorophenyl)tetrazolo[1,5-a]pyrazin-8-amine]
100 to 1000 | < 25 |  | Nc1nc(-c2ccc(F)cc2)c(-c2ccc3ncncc3c2)n2nnnc12 [1-15, 6-(4-fluorophenyl)-5-(quinazolin-6-yl)tetrazolo[1,5-a]pyrazin-8-amine]
100 to 1000 | < 25 |  | Nc1nc(-c2ccc(F)cc2)c(-c2cc3cnccc3s2)n2nnnc12 [1-16, 6-(4-fluorophenyl)-5-(thieno[3,2-c]pyridin-2-yl)tetrazolo[1,5-a]pyrazin-8-amine]
100 to 1000 | < 25 |  | Nc1nc(-c2ccc(F)cc2)c(-c2cc(Cl)c3nccn3c2)n2nnnc12 [1-17, 5-(8-chloroimidazo[1,2-a]pyridin-6-yl)-6-(4-fluorophenyl)tetrazolo[1,5-a]pyrazin-8-amine]
> 1000 | < 25 |  | Cc1nc2ccc(-c3c(-c4ccc(F)cc4)nc(N)c4nnnn34)cn2n1 [1-18, 6-(4-fluorophenyl)-5-(2-methyl-[1,2,4]triazolo[1,5-a]pyridin-6-yl)tetrazolo[1,5-a]pyrazin-8-amine]
100 to 1000 |  | > 1000 | Nc1nc(-c2ccc(F)cc2)c(-c2cc(F)c3ncccc3c2)n2nnnc12 [1-19, 6-(4-fluorophenyl)-5-(8-fluoroquinolin-6-yl)tetrazolo[1,5-a]pyrazin-8-amine]
> 1000 | < 25 |  | Cc1cn2cc(-c3c(-c4ccc(F)cc4)nc(N)c4nnnn34)cc(F)c2n1 [1-21, 5-(8-fluoro-2-methylimidazo[1,2-a]pyridin-6-yl)-6-(4-fluorophenyl)tetrazolo[1,5-a]pyrazin-8-amine]
< 100 | < 25 |  | N#Cc1cnc2ccc(-c3c(-c4ccc(F)cc4)nc(N)c4nnnn34)cn12 [1-22, 6-(8-amino-6-(4-fluorophenyl)tetrazolo[1,5-a]pyrazin-5-yl)imidazo[1,2-a]pyridine-3-carbonitrile]
< 100 |  |  | Nc1nc(-c2ccc(F)cc2)c(-c2ccc3ncc(Cl)n3c2)n2nnnc12 [1-23, 5-(3-chloroimidazo[1,2-a]pyridin-6-yl)-6-(4-fluorophenyl)tetrazolo[1,5-a]pyrazin-8-amine]
100 to 1000 |  | 100 to 1000 | Cc1cnc2c(Cl)cc(-c3c(-c4ccc(F)cc4)nc(N)c4nnnn34)cn12 [1-24, 5-(8-chloro-3-methylimidazo[1,2-a]pyridin-6-yl)-6-(4-fluorophenyl)tetrazolo[1,5-a]pyrazin-8-amine]
100 to 1000 |  |  | Cc1cc(-c2c(-c3ccccc3F)nc(N)c3nnnn23)cc(Cl)n1 [1-26, 5-(2-chloro-6-methylpyridin-4-yl)-6-(2-fluorophenyl)tetrazolo[1,5-a]pyrazin-8-amine]

IC50 [1] [nM] | inhibition at 10 µM [%] | IC50 [2] [nM] | SMILES
100 to 1000 |  |  | Cc1cc(-c2c(-c3cccc(F)c3)nc(N)c3nnnn23)cc(Cl)n1 [1-27, 5-(2-chloro-6-methylpyridin-4-yl)-6-(3-fluorophenyl)tetrazolo[1,5-a]pyrazin-8-amine]
< 100 | < 25 |  | Cc1cc(-c2c(-c3ccc(F)cc3)nc(N)n3nnnc23)cc(C)n1 [1-28, 8-(2,6-dimethylpyridin-4-yl)-7-(4-fluorophenyl)tetrazolo[1,5-c]pyrimidin-5-amine]
100 to 1000 |  |  | Cn1cc(-c2c(-c3ccc(F)cc3)nc(N)n3nnnc23)ccc1=O [1-29, 5-(5-amino-7-(4-fluorophenyl)tetrazolo[1,5-c]pyrimidin-8-yl)-1-methylpyridin-2(1H)-one]
< 100 |  |  | Cn1cnc2ccc(-c3c(-c4ccc(F)cc4)nc(N)n4nnnc34)cc21 [1-30, 7-(4-fluorophenyl)-8-(1-methyl-1H-benzo[d]imidazol-6-yl)tetrazolo[1,5-c]pyrimidin-5-amine]
100 to 1000 |  |  | Cc1ccnc2ccc(-c3c(-c4cccc(C#N)c4)nc(N)c4nnnn34)cc12 [1-31, 3-(8-amino-5-(4-methylquinolin-6-yl)tetrazolo[1,5-a]pyrazin-6-yl)benzonitrile]
100 to 1000 |  |  | Cc1cc(-c2c(-c3ccccc3)nc(N)c3nnnn23)cc(Cl)n1 [1-32, 5-(2-chloro-6-methylpyridin-4-yl)-6-phenyltetrazolo[1,5-a]pyrazin-8-amine]
100 to 1000 |  |  | Cc1cc(-c2c(-c3ccc(F)cc3)nc(N)n3nnnc23)cc(Cl)n1 [1-33, 8-(2-chloro-6-methylpyridin-4-yl)-7-(4-fluorophenyl)tetrazolo[1,5-c]pyrimidin-5-amine]
< 100 |  |  | Nc1nc(-c2ccc(F)cc2)c(-c2ccc3nccc(Cl)c3c2)c2nnnn12 [1-35, 8-(4-chloroquinolin-6-yl)-7-(4-fluorophenyl)tetrazolo[1,5-c]pyrimidin-5-amine]
100 to 1000 |  |  | Nc1nc(-c2ccc(F)cc2)c(-c2ccc3ncccc3c2)c2nnnn12 [1-37, 7-(4-fluorophenyl)-8-(quinolin-6-yl)tetrazolo[1,5-c]pyrimidin-5-amine]
100 to 1000 |  |  | N#Cc1cc(-c2c(-c3ccc(F)cc3)nc(N)n3nnnc23)cc(Cl)n1 [1-41, 4-(5-amino-7-(4-fluorophenyl)tetrazolo[1,5-c]pyrimidin-8-yl)-6-chloropicolinonitrile]
100 to 1000 |  |  | Nc1nc(-c2ccc(F)cc2)c(-c2ccc3nc[nH]c3c2)c2nnnn12 [1-42, 8-(1H-benzo[d]imidazol-6-yl)-7-(4-fluorophenyl)tetrazolo[1,5-c]pyrimidin-5-amine]
< 100 |  |  | Cc1ccnc2ccc(-c3c(-c4ccc(C#N)cc4)nc(N)c4nnnn34)cc12 [1-44, 4-(8-amino-5-(4-methylquinolin-6-yl)tetrazolo[1,5-a]pyrazin-6-yl)benzonitrile]
100 to 1000 |  |  | Cc1ccnc2ccc(-c3c(-c4ccccc4Cl)nc(N)c4nnnn34)cc12 [1-45, 6-(2-chlorophenyl)-5-(4-methylquinolin-6-yl)tetrazolo[1,5-a]pyrazin-8-amine]
100 to 1000 |  |  | Cc1ccnc2ccc(-c3c(-c4ccncc4)nc(N)c4nnnn34)cc12 [1-46, 5-(4-methylquinolin-6-yl)-6-(pyridin-4-yl)tetrazolo[1,5-a]pyrazin-8-amine]
100 to 1000 |  |  | Cc1ccnc2ccc(-c3c(-c4cccnc4)nc(N)c4nnnn34)cc12 [1-47, 5-(4-methylquinolin-6-yl)-6-(pyridin-3-yl)tetrazolo[1,5-a]pyrazin-8-amine]
100 to 1000 |  |  | Cc1ccnc2ccc(-c3c(-c4ccccc4C#N)nc(N)c4nnnn34)cc12 [1-49, 2-(8-amino-5-(4-methylquinolin-6-yl)tetrazolo[1,5-a]pyrazin-6-yl)benzonitrile]
100 to 1000 |  |  | Cc1cnc2ccc(-c3c(-c4ccc(C#N)cc4)nc(N)c4nnnn34)cn12 [1-51, 4-(8-amino-5-(3-methylimidazo[1,2-a]pyridin-6-yl)tetrazolo[1,5-a]pyrazin-6-yl)benzonitrile]
100 to 1000 |  |  | Cn1cnc2ccc(-c3c(-c4ccc(C#N)cc4)nc(N)n4nnnc34)cc21 [1-52, 4-(5-amino-8-(1-methyl-1H-benzo[d]imidazol-6-yl)tetrazolo[1,5-c]pyrimidin-7-yl)benzonitrile]
< 100 | < 25 |  | COc1ccc(-c2nc(N)c3nnnn3c2-c2ccc3ncn(C)c3c2)cc1 [1-53, 6-(4-methoxyphenyl)-5-(1-methyl-1H-benzo[d]imidazol-6-yl)tetrazolo[1,5-a]pyrazin-8-amine]
100 to 1000 | < 25 |  | Cc1cc(-c2c(-c3ccc(F)cc3)nc(N)c3nnnn23)cc(C(F)F)n1 [1-54, 5-(2-(difluoromethyl)-6-methylpyridin-4-yl)-6-(4-fluorophenyl)tetrazolo[1,5-a]pyrazin-8-amine]
